Data: patent US20080214675A1, “Hydroxybenzoic Acid Amides and the Use Thereof For Masking Bitter Taste” (SYMRISE GMBH & CO. KG, priority 2004, published 2008)
Counter-ions that a name gives are not always drawn.

How the values were obtained:
[1] = Bitterness reduction in a bitter principle solution (expert panel rating); format: in vivo; conditions: for % reduction in bitterness impression / Testers positive (number of testers who could detect a masking effect) / Bitterness impression (1-10) with: 500 ppm caffeine; for Bitterness impression (1-10) with: error = 95% confidence interval
Description: To quantify the reduction in the bitterness impression, the bitterness of a 500 ppm caffeine or salicin solution and a sample containing 500 ppm of caffeine or salicin and a varying amount of the exemplary compound was determined by a group of experts (rating 0 [not bitter] to 10 [extremely bitter]). The evaluation was made as a calculation of the reduction (in %) of the bitterness impression from the average values for the ratings of the caffeine or salicin solution and the solutions containing caffeine or salicin and the exemplary compound. 2,4-Dihydroxybenzoic acid (2,4-DHB) from U.S. Pat. No. 5,643,941 was used as a comparison.

[2] = examined in the context of various sweeteners; cited from earlier work
[3] = Strengthening the sweetness of a sugar solution (expert panel rating); format: in vivo; conditions: 5% sucrose; for Sweetness impression (1-10) with: error = standard deviation
Description: To quantify the strengthening of the sweetness impression, the sweetness of a 5% sucrose solution and a sample containing […] and an amount of the exemplary compound was determined by a group of experts (rating 0 [not sweet] to 10 [extremely sweet]). The evaluation was made as a calculation of the strengthening (in %) of the sweetness impression from the average values for the ratings of the sucrose solution and the solutions containing sucrose and the exemplary compound. Vanillin was used as a comparison as a typical aromatic substance described as sweet.

[4] = Strengthening the sweetness of a yogurt (expert panel rating); format: in vivo
Description: To quantify the strengthening of the sweetness impression, the sweetness of a low-fat (0.1%) commercial yogurt (Optiwell) containing 5% sucrose and of a sample containing […] and an amount of the exemplary compound was determined by a group of experts (rating 0 [not sweet] to 10 [extremely sweet]). The evaluation was made as a calculation of the strengthening (in %) of the sweetness impression from the average values for the ratings of the yogurt containing sucrose and the yogurt containing sucrose and the exemplary compound.

[5] = 200 ppm substance, 5% sucrose, low-fat yogurt

COc1cc(CNC(=O)c2ccc(O)cc2O)ccc1O [Example 5, 2,4-Dihydroxybenzoic acid-N-4-hydroxy-3-methoxybenzylamide monosodium salt]
% reduction in bitterness impression ([1]; 100 ppm substance): 32%, p < 0.05
Testers positive (number of testers who could detect a masking effect) ([1]; 100 ppm substance): 13
Bitterness impression (1-10) with ([1]; 100 ppm substance): 4.1 ± 1.0

COc1cc(CNC(=O)c2c(O)cc(O)cc2O)ccc1O [Example 2, 2,4,6-Trihydroxybenzoic acid-N-(4-hydroxy-3-methoxybenzyl)amide]
% reduction in bitterness impression ([1]; 100 ppm substance): 24%, p < 0.05
Testers positive (number of testers who could detect a masking effect) ([1]; 100 ppm substance): 8
Bitterness impression (1-10) with ([1]; 100 ppm substance): 5.1 ± 0.9

COc1cc(CNC(=O)c2ccc(O)cc2)ccc1O [Example 4, 4-Hydroxybenzoic acid-N-(4-hydroxy-3-methoxybenzyl)amide]
% reduction in bitterness impression ([1]; 100 ppm substance): 26%, p < 0.05
Testers positive (number of testers who could detect a masking effect) ([1]; 100 ppm substance): 9
Bitterness impression (1-10) with ([1]; 100 ppm substance): 4.5 ± 0.5

COc1ccc(CNC(=O)c2ccc(O)cc2O)cc1O [Example 9, 2,4-Dihydroxybenzoic acid-N-3-hydroxy-4-methoxybenzylamide, reference compound]
% reduction in bitterness impression ([1]; 100 ppm substance): 11%
Bitterness impression (1-10) with ([1]; 100 ppm substance): 3.9 ± 0.8
change in the bitterness impression (bitterness-masking effect) ([1]; application example 1): No statistically significant change

COc1cc(CNC(=O)c2ccccc2O)ccc1O [Example 3, 2-Hydroxybenzoic acid-N-(4-hydroxy-3-methoxybenzyl)amide]
% reduction in bitterness impression ([1]; 100 ppm substance): 23%, p < 0.05
Testers positive (number of testers who could detect a masking effect) ([1]; 100 ppm substance): 12
Bitterness impression (1-10) with ([1]; 100 ppm substance): 4.1 ± 0.9

COc1ccc(CNC(=O)c2c(O)cc(O)cc2O)cc1O [2,4,6-trihydroxybenzoic acid-N-(3-hydroxy-4-methoxybenzyl)amide]
taste [2]: tasteless

COc1cc(C=O)ccc1O [vanillin, Vanillin, reference compound]
% strengthening of sweetness impression ([3]; 600 ppb substance): −3%
Testers positive (number of testers who could detect a strengthening effect) ([3]; 600 ppb substance): 5
Sweetness impression (1-10) with ([3]; 600 ppb substance): 6.0 ± 1.1

COc1cc(CCNC(=O)c2ccc(O)cc2O)ccc1O [Example 6, 2,4-Dihydroxybenzoic acid-N-2-(4-hydroxy-3-methoxyphenyl)ethylamide]
% reduction in bitterness impression ([1]; 100 ppm substance): 20%, p < 0.05
Testers positive (number of testers who could detect a masking effect) ([1]; 100 ppm substance): 9
Bitterness impression (1-10) with ([1]; 100 ppm substance): 3.7 ± 0.8

O=C(O)c1ccc(O)cc1O [2,4-DHB, 2,4-Dihydroxybenzoic acid, reference compound]
% reduction in bitterness impression ([1]; 100 ppm substance): 3%
Testers positive (number of testers who could detect a masking effect) ([1]; 100 ppm substance): 9
Bitterness impression (1-10) with ([1]; 100 ppm substance): 5.0 ± 1.0

COc1cc(CNC(=O)c2ccc(O)cc2O)ccc1O [Example 1, 2,4-dihydroxybenzoic acid-N-(4-hydroxy-3-methoxybenzyl)amide]
% reduction in bitterness impression ([1]; 20 ppm substance): 29%, p < 0.05
Testers positive (number of testers who could detect a masking effect) ([1]; 20 ppm substance): 11
Bitterness impression (1-10) with ([1]; 20 ppm substance): 4.5 ± 0.6
% strengthening of sweetness impression [4, 5]: 26.5%
Testers positive (number of testers who could detect a strengthening effect) [4, 5]: 12
Sweetness impression (1-10) with ([4]; 200 ppm substance, 5% sucrose, low-fat yogurt, error = standard deviation): 5.4 ± 1.5
descriptors of the yogurt ([4]; yogurt containing the compound): more fullness, less acidic, soft, creamy
preference of the yogurt ([4]; yogurt containing the compound vs yogurt with sucrose only): preferred
% strengthening of sweetness impression ([3]; 100 ppm substance): 7.2%
Testers positive (number of testers who could detect a strengthening effect) ([3]; 100 ppm substance): 7
Sweetness impression (1-10) with ([3]; 100 ppm substance): 5.6 ± 1.7
